{
  "source": "patent US10392630B2",
  "about": "“Plants having increased tolerance to herbicides” (BASF AGRO B.V., priority 2013, dated 2019)",
  "key": {"[1]": {"biological_target": "Alopecurus mutant PPO (ALOMY), SEQ ID NO 2 with amino acid substitution", "test": "PPO enzyme assay, dose-response (fluorescence), mutated Alopecurus PPO2", "format": "biochemical, Alopecurus myosuroides"}, "[2]": {"system": "Alopecurus wildtype PPO (ALOMY), PPO herbicide sensitive PPO2, SEQ ID NO 2", "test": "PPO enzyme assay, dose-response (fluorescence), wildtype Alopecurus PPO2", "format": "biochemical, Alopecurus myosuroides"}, "[3]": {"system": "transgenic Arabidopsis thaliana plants", "test": "Growth inhibition of transgenic Arabidopsis in 48-well plates, tolerance factor (Table 5, FIG. 2)", "format": "in vivo", "settings": "growth inhibition seven to ten days after seeding"}, "[4]": {"system": "transgenic T0 corn events", "test": "Herbicide injury of transgenic T0 corn events, greenhouse spray (Table 6a)", "format": "in vivo, Zea mays", "parameters": "key: 0 is no injury relative to an unsprayed wild type check; 9 is completely dead", "settings": "7 days after treatment"}, "[5]": {"system": "transgenic soybean cv Jake cuttings", "test": "Herbicide injury of transgenic soybean cuttings from T0 plants (Table 7, FIG. 4)", "format": "in vivo, Glyceine max", "settings": "V2 spray, 1 week after treatment"}},
  "note": "Several values for one entry are separate records, joined by “and”; a condition that tells them apart may be missing. Equal values may be shown once. Read-outs that look alike come from different tables or passages of the source.",
  "data": [
    {"smiles": "O=C(O)c1cc(Oc2ccc(C(F)(F)F)cc2Cl)ccc1[N+](=O)[O-]", "note": "[ACIFLUORFEN, 5-(2-CHLORO-4-TRIFLUOROMETHYL-PHENOXY)-2-NITRO-BENZOIC ACID]", "values": [
      {"measurement": "IC50", "setting": "[1]", "result": "≥ 10000", "unit": "nM"},
      {"measurement": "IC50", "setting": "[2]; Table 3b, SEQ ID NO 2, WT", "result": 1140, "unit": "nM"}
    ]},
    {"smiles": "CCOC(=O)COc1ncccc1Oc1cc(-n2c(=O)cc(C(F)(F)F)n(C)c2=O)c(F)cc1Cl", "note": "[S-3100, ethyl 2-[[3-[2-chloro-4-fluoro-5-[3-methyl-2,6-dioxo-4-(trifluoromethyl)pyrimidin-1-yl]phenoxy]-2-pyridyl]oxy]acetate]", "values": [
      {"measurement": "IC50", "setting": "[1]", "result": 950, "unit": "nM"},
      {"measurement": "IC50", "setting": "[1]; listed as S-3101", "result": 0.552, "unit": "nM"},
      {"measurement": "IC50", "setting": "[1]; listed as S-3102", "result": 2.37, "unit": "nM"},
      {"measurement": "IC50", "setting": "[1]; listed as S-3103", "result": 992, "unit": "nM"},
      {"measurement": "IC50", "setting": "[1]; listed as S-3104", "result": 12.1, "unit": "nM"},
      {"measurement": "IC50", "setting": "[2]; Table 3b, SEQ ID NO 2, WT", "result": 0.0645, "unit": "nM"}
    ]},
    {"smiles": "CC(C)N(C)S(=O)(=O)NC(=O)c1cc(-n2c(=O)cc(C(F)(F)F)n(C)c2=O)c(F)cc1Cl", "note": "[saflufenacil]", "values": [
      {"measurement": "TF (Tolerance Factor), relative tolerance rate (non-transgenic = 1.0)", "setting": "[3]; transgenic Arabidopsis Am_PPO2_F438I", "result": 3300},
      {"measurement": "TF (Tolerance Factor), relative tolerance rate (non-transgenic = 1.0)", "setting": "[3]; transgenic Arabidopsis Am_PPO2_R137A", "result": 1500},
      {"measurement": "TF (Tolerance Factor), relative tolerance rate (non-transgenic = 1.0)", "setting": "[3]; transgenic Arabidopsis Am_PPO2_R137A_F438I", "result": 950},
      {"measurement": "TF (Tolerance Factor), relative tolerance rate (non-transgenic = 1.0)", "setting": "[3]; transgenic Arabidopsis Am_PPO2_R137A_F438L", "result": 2300},
      {"measurement": "TF (Tolerance Factor), relative tolerance rate (non-transgenic = 1.0)", "setting": "[3]; transgenic Arabidopsis Am_PPO2_R137A_F438M", "result": 2500},
      {"measurement": "TF (Tolerance Factor), relative tolerance rate (non-transgenic = 1.0)", "setting": "[3]; transgenic Arabidopsis Am_PPO2_R137A_F438V", "result": 2500},
      {"measurement": "TF (Tolerance Factor), relative tolerance rate (non-transgenic = 1.0)", "setting": "[3]; transgenic Arabidopsis Am_PPO2_R137I", "result": 2140},
      {"measurement": "TF (Tolerance Factor), relative tolerance rate (non-transgenic = 1.0)", "setting": "[3]; transgenic Arabidopsis Am_PPO2_R137L_F438I", "result": 2700},
      {"measurement": "TF (Tolerance Factor), relative tolerance rate (non-transgenic = 1.0)", "setting": "[3]; transgenic Arabidopsis Am_PPO2_R137L_F438L", "result": 2700},
      {"measurement": "TF (Tolerance Factor), relative tolerance rate (non-transgenic = 1.0)", "setting": "[3]; transgenic Arabidopsis Am_PPO2_R137L_F438M", "result": 3100},
      {"measurement": "TF (Tolerance Factor), relative tolerance rate (non-transgenic = 1.0)", "setting": "[3]; transgenic Arabidopsis Am_PPO2_R137M_F438I", "result": 1740},
      {"measurement": "TF (Tolerance Factor), relative tolerance rate (non-transgenic = 1.0)", "setting": "[3]; transgenic Arabidopsis Am_PPO2_R137M_F438L", "result": 1340},
      {"measurement": "TF (Tolerance Factor), relative tolerance rate (non-transgenic = 1.0)", "setting": "[3]; transgenic Arabidopsis Am_PPO2_R137M_F438M", "result": 1700},
      {"measurement": "TF (Tolerance Factor), relative tolerance rate (non-transgenic = 1.0)", "setting": "[3]; transgenic Arabidopsis Am_PPO2_R137M_F438V", "result": 1900},
      {"measurement": "Herbicide injury, 0 to 9 rating scale", "setting": "[4]; T0 corn events tp-SorbiPPO2::AlomyPPO2_F431V, 75 g ai/ha + 1% (v/v) MSO at V2 stage", "result": 3},
      {"measurement": "Herbicide injury, 0 to 9 rating scale", "setting": "[4]; T0 corn events tp-SorbiPPO2::AlomyPPO2_R130A_F431V, 75 g ai/ha + 1% (v/v) MSO at V2 stage", "result": 7},
      {"measurement": "Herbicide injury, 0 to 9 rating scale", "setting": "[4]; T0 corn events tp-ZeamaPPO2::AlomyPPO2_F431V, 75 g ai/ha + 1% (v/v) MSO at V2 stage", "result": 0},
      {"measurement": "Herbicide injury, 0 to 9 rating scale", "setting": "[4]; T0 corn events tp-ZeamaPPO2::AlomyPPO2_R130A, 75 g ai/ha + 1% (v/v) MSO at V2 stage", "result": 0},
      {"measurement": "Herbicide injury, 0 to 9 rating scale", "setting": "[4]; untransformed wild type corn, 50 g ai/ha + 1% (v/v) MSO at V2 stage", "result": 7},
      {"measurement": "Herbicide injury, 0 to 9 rating scale", "setting": "[4]; untransformed wild type corn, 75 g ai/ha + 1% (v/v) MSO at V2 stage", "result": 8},
      {"measurement": "Herbicide injury, 0 to 9 rating scale", "setting": "[4]; untransformed wild type corn, 100 g ai/ha + 1% (v/v) MSO at V2 stage", "result": 8},
      {"measurement": "IC50", "setting": "[1]", "result": "> 10000", "unit": "nM"},
      {"measurement": "IC50", "setting": "[2]; Table 3a, PPO herbicide sensitive PPO2, SEQ ID NO 2, ALOMY", "result": 211, "unit": "nM"},
      {"measurement": "Herbicide injury", "setting": "[5]; AlomyPPO1_R138A T0 cuttings, BAS 800H 25 g ai/ha", "result": "6 and 9"},
      {"measurement": "Herbicide injury", "setting": "[5]; AlomyPPO1_R138A_Y420M T0 cuttings, BAS 800H 25 g ai/ha", "result": 0},
      {"measurement": "Herbicide injury", "setting": "[5]; AlomyPPO1_R138A_Y420M T0 cuttings, BAS 800H 50 g ai/ha", "result": 3},
      {"measurement": "Herbicide injury", "setting": "[5]; AlomyPPO1_R138A_Y420M T0 cuttings, BAS 800H 100 g ai/ha", "result": 3},
      {"measurement": "Herbicide injury", "setting": "[5]; AlomyPPO1_R138L T0 cuttings, BAS 800H 25 g ai/ha", "result": "8 and 7 and 6"},
      {"measurement": "Herbicide injury", "setting": "[5]; AlomyPPO1_R138L T0 cuttings, BAS 800H 50 g ai/ha", "result": "8 and 9 and 6 and 7"},
      {"measurement": "Herbicide injury", "setting": "[5]; AlomyPPO1_R138L T0 cuttings, BAS 800H 100 g ai/ha", "result": "8 and 9"},
      {"measurement": "Herbicide injury", "setting": "[5]; AlomyPPO1_Y420M T0 cuttings, BAS 800H 50 g ai/ha", "result": "5 and 4 and 8"},
      {"measurement": "Herbicide injury", "setting": "[5]; AlomyPPO1_Y420M T0 cuttings, BAS 800H 100 g ai/ha", "result": "5 and 4 and 8"},
      {"measurement": "Herbicide injury", "setting": "[5]; AlomyPPO2_R137A T0 cuttings, BAS 800H 25 g ai/ha", "result": 3},
      {"measurement": "Herbicide injury", "setting": "[5]; AlomyPPO2_R137A T0 cuttings, BAS 800H 50 g ai/ha", "result": 0},
      {"measurement": "Herbicide injury", "setting": "[5]; AlomyPPO2_R137A T0 cuttings, BAS 800H 100 g ai/ha", "result": 2},
      {"measurement": "Herbicide injury", "setting": "[5]; AlomyPPO2_R137A_F438L T0 cuttings, BAS 800H 200 g ai/ha", "result": "6 and 9"},
      {"measurement": "Herbicide injury", "setting": "[5]; AlomyPPO2_R137A_F438V T0 cuttings, BAS 800H 200 g ai/ha", "result": "4 and 3 and 6"},
      {"measurement": "Herbicide injury", "setting": "[5]; AlomyPPO2_R137L_F438I T0 cuttings, BAS 800H 100 g ai/ha", "result": 9},
      {"measurement": "Herbicide injury", "setting": "[5]; AlomyPPO2_R137L_F438I T0 cuttings, BAS 800H 200 g ai/ha", "result": 9},
      {"measurement": "Herbicide injury", "setting": "[5]; AlomyPPO2_R137M_F438L T0 cuttings, BAS 800H 50 g ai/ha", "result": 4},
      {"measurement": "Herbicide injury", "setting": "[5]; AlomyPPO2_R137M_F438L T0 cuttings, BAS 800H 100 g ai/ha", "result": "6 and 3"},
      {"measurement": "Herbicide injury", "setting": "[5]; AlomyPPO2_R137M_F438M T0 cuttings, BAS 800H 50 g ai/ha", "result": 9},
      {"measurement": "Herbicide injury", "setting": "[5]; Wild type cuttings, BAS 800H 25 g ai/ha", "result": 9},
      {"measurement": "Herbicide injury", "setting": "[5]; Wild type cuttings, BAS 800H 50 g ai/ha", "result": 9},
      {"measurement": "Herbicide injury", "setting": "[5]; Wild type cuttings, BAS 800H 100 g ai/ha", "result": 9},
      {"measurement": "Herbicide injury", "setting": "[5]; Wild type cuttings, BAS 800H 200 g ai/ha", "result": 9}
    ]}
  ]
}
